Laboratory results as given in patent US6830916B2, “Sphingosine kinase, cloning, expression and methods of use” (priority 2000, dated 2004).

Assays:
[1] = target: T1, hSPHK1 (Homo sapiens, UniProt Q9NYA1); assay: SPHK-dependent phosphorylation of sphingosine analogs and other lipids (substrate specificity of hSPHK1); format: biochemical; conditions: lipid 50 μM, lysates of HEK293 cells transfected with hSPHK1 as enzyme source
T1 construct: to obtain the full-length cDNA of hSPHK1; expressed in transfected cells; host or cells: HEK293
Method: (§1) Cytosolic sphingosine kinase activity was determined with 50 μM sphingosine dissolved in Triton X-100 (final concentration 0.25%) and […] (10 μCi, 1 mM) containing MgCl2 (10 mM). In some studies, sphingosine was added as a complex with bovine serum albumin (BSA). Specific activity was expressed as pmol SPP formed per minute per mg protein.
(§2) HEK293 cells were transfected with hSPHK1 and SPHK-dependent phosphorylation of various sphingosine analogs or other lipids (50 μM) was measured using cell lysates as enzyme source. DAG, diacylglycerol; PI, phosphatidylinositol; C2-CER, N-acetyl—sphingosine. […] SPHK activity in HEK293 cell lysates 24 h after transfection with hSPHK1 was measured with 10 μM […] in the absence or presence of 20 μM and 40 μM DMS or DHS. Data are means±SD and are expressed as percent inhibition.

[2] = tested on: mouse melanoma B10 cells; conditions: low nanomolar concentrations of SPP; also SPP immobilized on glass beads; cited from earlier work
[3] = target: T1, hSPHK1; assay: Inhibition of SPHK activity in lysates of HEK293 cells transfected with hSPHK1; format: biochemical; conditions: for inhibition of hSPHK1: 20 μM and 40 μM inhibitor, 10 μM SPP (so in the source), HEK293 lysates 24 h after transfection
Method: as §1, §2

[4] = tested on: c-myc-SPHK; assay: Cytosolic c-myc-SPHK activity in transfected NIH 3T3 fibroblasts; format: cell-based
Method: as §1

[5] = substrate: CCCCCCCCCCCCC/C=C/[C@@H](O)[C@@H](N)CO; assay: SPHK-dependent phosphorylation of sphingosine analogs and other lipids (substrate specificity of hSPHK1); format: biochemical, human; conditions: other: D-erythro-sphingosine as substrate
Method: as §1, §2

Q: For diacylglycerol, which “substrate of hSPHK1 (SPHK-dependent phosphorylation)” value (“substrate of hSPHK1” below) [1] is on record?
A: not substrates

Q: With `CCCCCCCCCCCCC/C=C/[C@@H](O)[C@@H](N)COP(=O)(O)O` [SPP, Sphingosine-1-phosphate] as the molecule, how does the “effect on cell motility” value [2] read?
A: inhibited the motility

Q: With N,N-dimethylsphingosine [DMS] as the molecule, how does the “inhibition of hSPHK1” value [3] read?
A: inhibitors of hSPHK1

Q: What about the “inhibition of hSPHK1” value ([3]; listed as CMS) of the same molecule?
A: inhibited hSPHK1

Q: With `CCCCCCCCCCCCC/C=C/[C@@H](O)[C@H](CO)NC(C)=O` [C2-ceramide, N-acetyl—sphingosine] as the molecule, how does the “substrate of hSPHK1” value [1] read?
A: not substrates

Q: Which results are given for `CCCCCCCCCCCCC/C=C/[C@@H](O)[C@@H](N)CO` [D-erythro-sphingosine]?
A: substrate of hSPHK1 (SPHK-dependent phosphorylation) [1]: more efficiently phosphorylated than sphingamine; substrate of hSPHK1 (SPHK-dependent phosphorylation) ([1]; listed as D-(+)-erythro-trans-isomer of sphingosine): best substrates

Q: Which “substrate of hSPHK1” value [1] does the source give for `CCCCCCCCCCCCCCC[C@H](O)[C@H](N)CO` [erythrodihydrosphingosine] here?
A: best substrates

Q: Which “effect on cytosolic c-myc-SPHK activity” value [4] does the source give for PDGF here?
A: stimulated

Q: For phosphatidylinositol, which “substrate of hSPHK1” value [1] is on record?
A: not substrates

Q: Which “inhibition of hSPHK1” value [3] does the source give for `CCCCCCCCCCCCCCC[C@H](O)[C@@H](N)CO` [DHS, D,L-threo-dihydrosphingosine] here?
A: inhibited hSPHK1

Q: And the “inhibition of hSPHK1” value ([3]; listed as D,L-threo-dihydro-sphingosine)?
A: inhibitors of hSPHK1

Q: What about the “relative inhibitory potency on hSPHK1” value ([3]; DHS compared with DMS) of the same molecule?
A: slightly more potent thank DMS

Q: What about the “substrate of hSPHK1” value [1] of the same molecule?
A: not substrates

B1: hSPHK1 (Homo sapiens) (protein)
chain: MDPAGGPRGVLPRPCRVLVLLNPRGGKGKALQLFRSHVQPLLAEAEISFTLMLTERRNHARELVRSEELGRWDALVVMSGDGLMHEVVNGLMERPDWETAIQKPLCSLPAGSGNALAASLNHYAGYEQVTNEDLLTNCTLLLCRRLLSPMNLLSLHTASGLRLFSVLSLAWGFIADVDLESEKYRRLGEMRFTLGTFLRLAALRTYRGRLAYLPVGRVGSKTPASPVVVQQGPVDAHLVPLEEPVPSHWTVVPDEDFVLVLALLHSHLGSEMFAAPMGRCAAGVMHLFYVRAGVSRAMLLRLFLAMEKGRHMEYECPYLVYVPVVAFRLEPKDGKGVFAVDGELMVSEAVQGQVHPNYFWMVSGCVEPPPSWKPQQMPPPEEPL
notes: to obtain the full-length cDNA of hSPHK1; expressed in transfected cells; host or cells: HEK293
Q: With B1 as the molecule, how does the Km [5] read?
A: 5 µM
